Measurements: patent publication US20040132739A1, “Combination of a gelatinase inhibitor and an anti-tumor agent, and uses thereof” (priority 2001, published 2004)

Key:
[1] = test system: PancTul pancreas carcinoma; conditions: for inhibition of primary tumor growth: RO 28-2653 45 mg/kg oral daily day 7 to 30; for inhibition of primary tumor growth / Volume Primary tumor (Vm) / average number of metastases per animal: Gemcitabine 2.2 mg/kg i.p. every second day, day 7 to 30; for Volume Primary tumor (Vm) / average number of metastases per animal: RO 28-2653 45 mg/kg oral daily; for Metastasis Diaphragm / Metastasis Kidneys/Adrenal gland (capsule) / Metastasis Ligament of the uterus/testis (serosa), seminal vesicles / Metastasis Liver hilus / Metastasis Liver, in parenchyme / Metastasis Liver, on serosa / Metastasis Lung/Mediastinum / Metastasis Lymph nodes in mesentery / Metastasis Mesentery 3-20 metastasis(1-18 mm^3) / Metastasis Mesentery < 3 metastasis(^2 mm^3) / Metastasis Pelvis / Metastasis Site of surgical incision Large 80-280 mm^3 / Metastasis Site of surgical incision Medium < 50 mm^3 / Metastasis Site of surgical incision Small < 10 mm^3 / Metastasis Spleen (serosa), gastrosplenic ligament: animals with metastasis / animals in group; for Necrosis Primary tumor: animals with necrosis / animals in group; for Tumor take rate Primary tumor: animals with tumor / animals in group; for Body weight (m): mean change (spread)
Method: The activity of RO 28-2653 in combination with Gemcitabine was evaluated in the human orthotopic pancreas carcinoma mouse xenograft model PancTul with primary tumor size and number and size of metastases as endpoints.
Effect of the combination of RO 28-2653 and Gemcitabine on primary tumor volume in the orthotopic PancTul pancreas cancer xenograft model. Mice were treated with RO 28-2653 with daily oral doses of 45 mg/kg from day 7 until day 30. Gemcitabine treatment consisted of one intraperitoneal dose of 2.2 mg/kg every second day from day 7 to day 30.
Effect of the combination of RO 28-2653 and Gemcitabine on metastatic spread in the orthotopic PancTul pancreas cancer xenograft model. Mice were treated with RO 28-2653 with daily oral doses of 45 mg/kg from day 7 until day 30. Gemcitabine treatment consisted of one intraperitoneal dose of 2.2 mg/kg every second day from day 7 to day 30.

[2] = toxicological tests over a wide range of doses; assay type: in vivo; conditions: side effects like those of broad-spectrum MMP inhibitors
From the text: Thus, no dose-limiting toxicities were expected with RO 28-2653, and accordingly no additional benefit from co-treatment with cytostatic/cytotoxic drugs was expected. However, to explore also the distant possibility of an additional benefit from combination treatment, such studies were initiated and conducted in various animal models. The models and cytostatic/cytotoxic drugs were chosen to reflect as broad a spectrum of oncological indications and clinically active treatment principles as possible.

HOC-22 ovarian carcinoma = experiment: human orthotopic ovarian carcinoma mouse xenograft model HOC-22, survival; assay type: in vivo; conditions: versus vehicle/control mice (median survival 30 days); RO 28-2653 45 mg/kg oral daily six times a week, day 7 to 21; Cisplatin 4 doses of 3 mg/kg i.v. every 4 days from day 7
Method: DDP=Cisplatin. […] Statistics was calculated using the log rank test. […] Cisplatin treatment consisted of 4 doses of 3 mg/kg i.v. per mouse once every 4 days, starting on day 7.

[3] = test system: MatLyLu prostate carcinoma; experiment: rat syngeneic orthotopic prostate carcinoma model MatLyLu, primary tumor size; assay type: in vivo; conditions: as compared to vehicle-treated animals; RO 28-2653 100 mg/kg oral daily, Etoposide 25 mg/m^2 i.p. once daily, day 6 to day 17
Method: Etoposide was given intraperitoneally once daily, from day 6 to day 17, at a dose of 25 mg/m^2.

Q: With `O=C1NC(=O)C(c2ccc(-c3ccccc3)cc2)(N2CCN(c3ccc([N+](=O)[O-])cc3)CC2)C(=O)N1` [RO 28-2653, 5-(4-biphenyl)-5-[N-(4-nitrophenyl)piperazinyl] barbituric acid] as the compound, how does the “inhibition of primary tumor growth” value [1] read?
A: Its value is 66%.

Q: What about the “Volume Primary tumor (Vm)” value [1] of the same compound?
A: The value was “Vm = 112 (±46) mm^3”.

Q: What about the “average number of metastases per animal” value [1] of the same compound?
A: The value was 2.5 metastases per animal.

Q: What about the “Metastasis Diaphragm” value [1] of the same compound?
A: The value was 3/13.

Q: And the “Metastasis Kidneys/Adrenal gland (capsule)” value [1]?
A: The value was 1/13.

Q: And the “Metastasis Ligament of the uterus/testis (serosa), seminal vesicles” value [1]?
A: The value was 0/13.

Q: What about the “Metastasis Liver hilus” value [1] of the same compound?
A: Its value is 4/13.

Q: And the “Metastasis Liver, in parenchyme” value [1]?
A: Its value is 3/13.

Q: What about the “Metastasis Liver, on serosa” value [1] of the same compound?
A: Its value is 2/13.

Q: And the “Metastasis Lung/Mediastinum” value [1]?
A: Its value is 2/13.

Q: What about the “Metastasis Lymph nodes in mesentery” value [1] of the same compound?
A: The value was 2/13.

Q: What about the “Metastasis Mesentery 3-20 metastasis(1-18 mm^3)” value [1] of the same compound?
A: Its value is 5/13.

Q: And the “Metastasis Mesentery < 3 metastasis(^2 mm^3)” value [1]?
A: Its value is 0/13.

Q: What about the “Metastasis Pelvis” value [1] of the same compound?
A: Its value is 0/13.

Q: And the “Metastasis Site of surgical incision Large 80-280 mm^3” value [1]?
A: The value was 6/13.

Q: What about the “Metastasis Site of surgical incision Medium < 50 mm^3” value [1] of the same compound?
A: The value was 3/13.

Q: And the “Metastasis Site of surgical incision Small < 10 mm^3” value [1]?
A: Its value is 2/13.

Q: What about the “Metastasis Spleen (serosa), gastrosplenic ligament” value [1] of the same compound?
A: The value was 0/13.

Q: What about the “Necrosis Primary tumor” value [1] of the same compound?
A: The value was 1/13.

Q: And the “Tumor take rate Primary tumor” value [1]?
A: The value was 13/13.

Q: And the “Body weight (m)” value [1]?
A: Its value is “m = −5 (±4)%”.

Q: And the side effects [2]?
A: Its side effects is “no side effects”.

Q: What about the increase in lifespan (HOC-22 ovarian carcinoma) of the same compound?
A: Its increase in lifespan is 63%.

Q: And the “inhibition of primary tumor growth” value [3]?
A: The value was 86%.

Q: For `Nc1ccn([C@@H]2O[C@H](CO)[C@@H](O)C2(F)F)c(=O)n1` [Gemcitabine, reference compound], which “inhibition of primary tumor growth” value [1] is on record?
A: The value was 85%.

Q: What about the “Volume Primary tumor (Vm)” value [1] of the same compound?
A: The value was “Vm = 51 (±14) mm^3”.

Q: And the “average number of metastases per animal” value [1]?
A: Its value is 0.4 metastases per animal.

Q: What about the “Metastasis Diaphragm” value [1] of the same compound?
A: Its value is 0/13.

Q: And the “Metastasis Kidneys/Adrenal gland (capsule)” value [1]?
A: The value was 0/13.

Q: What about the “Metastasis Ligament of the uterus/testis (serosa), seminal vesicles” value [1] of the same compound?
A: The value was 0/13.

Q: What about the “Metastasis Liver hilus” value [1] of the same compound?
A: Its value is 0/13.

Q: What about the “Metastasis Liver, in parenchyme” value [1] of the same compound?
A: The value was 1/13.

Q: And the “Metastasis Liver, on serosa” value [1]?
A: The value was 1/13.

Q: What about the “Metastasis Lung/Mediastinum” value [1] of the same compound?
A: Its value is 0/13.

Q: What about the “Metastasis Lymph nodes in mesentery” value [1] of the same compound?
A: Its value is 0/13.

Q: And the “Metastasis Mesentery 3-20 metastasis(1-18 mm^3)” value [1]?
A: The value was 0/13.

Q: And the “Metastasis Mesentery < 3 metastasis(^2 mm^3)” value [1]?
A: Its value is 0/13.

Q: And the “Metastasis Pelvis” value [1]?
A: Its value is 0/13.

Q: And the “Metastasis Site of surgical incision Large 80-280 mm^3” value [1]?
A: The value was 0/13.

Q: What about the “Metastasis Site of surgical incision Medium < 50 mm^3” value [1] of the same compound?
A: Its value is 1/13.

Q: What about the “Metastasis Site of surgical incision Small < 10 mm^3” value [1] of the same compound?
A: The value was 2/13.

Q: And the “Metastasis Spleen (serosa), gastrosplenic ligament” value [1]?
A: The value was 0/13.

Q: And the “Necrosis Primary tumor” value [1]?
A: The value was 4/13.

Q: What about the “Tumor take rate Primary tumor” value [1] of the same compound?
A: Its value is 13/13.

Q: And the “Body weight (m)” value [1]?
A: The value was “m = −2 (±5)%”.

Q: With `COc1cc([C@@H]2c3cc4c(cc3[C@@H](O[C@@H]3O[C@@H]5CO[C@@H](C)O[C@H]5[C@H](O)[C@H]3O)[C@H]3COC(=O)[C@H]23)OCO4)cc(OC)c1O` [Etoposide, reference compound] as the compound, how does the “inhibition of primary tumor growth” value [3] read?
A: The value was 35%.

Q: With `N.N.[Cl][Pt][Cl]` [Cisplatin, reference compound] as the compound, how does the increase in lifespan (HOC-22 ovarian carcinoma) read?
A: The increase in lifespan was 95%.
